Data on two compounds can be found in US20120070445A1, “BRAIN-DERIVED GONADOTROPINS AND COGNITION” (priority 2006, published 2012).

One data set has as its system AD patients. Particulars: high doses, completed phase II trial; cited from earlier work.
In data set [1] the test system is Tg2576 mice. Particulars: APP transgenic mice, recent study; cited from earlier work.
Data set [2] deals with Tg2576 mice. Description: Y-maze performance in aged Tg2576 mice. The format is in vivo. Particulars: 21 month old Tg2576 female mice, 3 months treatment vs placebo/saline, p<0.01.
Data set [3] concerns C57/B6 female mice. Nature of the data set: Morris Water Maze in ovariectomized mice (training and probe trial). The format is in vivo. Particulars: for length of time taken to locate the invisible platform across days (rescue of OVX-associated cognitive decline): OVX mice, three training days. The procedure:
(Significance indicated by: *=P+S vs E+S; #=P+S vs P+L; $=P+S vs SHAM; %=P+S vs E+L; at p<0.05).
Additionally, to further determine the memory function and training success in the animals we measured the capacity of the animals to retain the information learned using a probe trial. In this regard, at the end of the last day of training we removed the platform and let the animals swim for 1 minute.

In data set [4] the test system is Aβ. Description: Hippocampal Aβ burden (% area stained) in Tg2576 mice. Type of data set: in vivo. Particulars: vs saline-treated, p<0.05. The source says:
Scale bar, 200 μm. […] In this initial study we used aged animals to 1) circumvent the estrogen issue, since aged mice, like humans show estropause and 2) to examine the effects of LH ablation once the disease is well established.

Data set [5] deals with C57/B6 female mice. Nature of the data set: Y-maze in ovariectomized mice with or without estrogen replacement. Type of data set: in vivo. Particulars: OVX mice.
The test system of data set [6] is Aβ. Particulars: APP transgenic mice, recent study; cited from earlier work.
The next data set concerns LH. Nature of the data set: Serum LH and pituitary LHβ mRNA after leuprolide acetate. The format is in vivo, Tg2576 mice.
Data set [7] in a line: Body weight 3 months post-surgery + replacement + drug treatment.
Description: In addition we added a SHAM ovariectomized group that received saline and a placebo pallet (n=10). During the last two weeks of the study all animals have been tested for Y-maze and Morris Water Maze performance.

For the compound `CCNC(=O)[C@@H]1CCCN1C(=O)[C@H](CCCNC(=N)N)NC(=O)[C@H](CC(C)C)NC(=O)[C@@H](CC(C)C)NC(=O)[C@H](Cc1ccc(O)cc1)NC(=O)[C@H](CO)NC(=O)[C@H](Cc1c[nH]c2ccccc12)NC(=O)[C@H](Cc1c[nH]cn1)NC(=O)[C@@H]1CCC(=O)N1` [leuprolide acetate], in the data set on AD patients, the “cognitive impairment and activities of daily living” value is “stabilization in cognitive impairment and activities of daily living”. In addition, the Y-maze performance entry is given as “improves Y-maze performance” in the data set with Tg2576 mice [1] and “significantly improved Y-maze performance” in the data set with C57/B6 female mice [5] (leuprolide acetate 7.5 mg/kg for 3 months vs saline, specific to placebo replaced group (p=0.005)). For the same compound, in the data set on Tg2576 mice [2], the “cognitive decline (Y-maze % alternations, change from baseline)” value is on record as “significantly attenuates cognitive decline”. In addition, the “length of time taken to locate the invisible platform across days (rescue of OVX-associated cognitive decline)” value in the data set with C57/B6 female mice [3] is “as effective as estrogen in rescuing OVX-associated cognition decline”. Besides, in the data set on C57/B6 female mice [3] (independent of replacement regimen, vs saline, p=0.027), the “learning rate in Morris Water Maze” value is “learned at a faster rate”. Further, the “latency to enter NE quadrant, probe trial” value with C57/B6 female mice [3] (regardless of replacement regimen, 0.041) is reported as “entered that quadrant earlier”. In addition, the “distance swam in NE quadrant, probe trial” value in the data set on C57/B6 female mice [3] (regardless of replacement regimen, p=0.003) is recorded as “swam longer distances”. The “number of platform crossings, probe trial” value in the data set with C57/B6 female mice [3] (regardless of replacement regimen, p=0.004) is given as “crossed it more times”. The “latency to enter platform location, probe trial” value in the data set on C57/B6 female mice [3] (regardless of replacement regimen, p=0.005) is on record as “crossed the invisible platform region more earlier”. For the same compound, the “Aβ burden, % area stained in the entire hippocampus” value in the data set with Aβ [4] is on record as “significantly lower”. In the data set with Aβ [6], the “amyloid-β load in the hippocampus” value was “decreases amyloid-β load”. Further, the “serum LH” value in the data set with LH (Tg2576 mice, vs saline, P<0.02) is reported as “significant decline in serum LH”. Besides, the “LHβ mRNA expression in the pituitary” value in the data set on LH (mice, 6 and 8 week treatment vs saline) was “clear decrease in the expression of LHβ mRNA”.
In the case of Estrogen, in [7] (OVX + Estrogen, Saline, 3 months post-surgery), the Body weight is 23.5. Further, the “body weight of OVX+estrogen replaced group compared with SHAM” value in data set [7] (irrespective of drug treatment) is given as “not different from the SHAM operated group”. The “length of time taken to locate the invisible platform across days (rescue of OVX-associated cognitive decline)” value with C57/B6 female mice [3] is recorded as “rescued by estrogen replacement”. In the data set with C57/B6 female mice [5] (saline-treated, t=1.841, p=0.07), the “Y-maze performance, estrogen-replaced vs placebo replaced” value is recorded as “strong trend”.
